Literature values as cited in publication PMC6182381, “Population Pharmacokinetics and Exposure-Response Relationships of Naldemedine” (Pharmaceutical Research, 2018).
Like-named read-outs stand apart in the source and are kept apart here.

How the values were obtained:
[1] = design: method as in earlier work; conditions: oral 2 mg [14C]-labeled naldemedine; cited from earlier work
[2] = test system: patients with chronic non-cancer pain and OIC; design: method as in PMID 28371937; conditions: Study 1107 V9221 (Phase 2b), cited from earlier work
[3] = test system: patients with chronic non-cancer pain and OIC; design: method as in PMID 28576452; conditions: cited from earlier work
[4] = test system: patients with chronic non-cancer pain and OIC; design: method as in PMID 28371937; conditions: Phase 2b, cited from earlier work

CC(C)(NC(=O)C1=C(O)[C@@H]2Oc3c(O)ccc4c3[C@@]23CCN(CC2CC2)[C@H](C4)[C@]3(O)C1)c1nc(-c2ccccc2)no1 [naldemedine]
total radioactivity excreted in feces [1]: 35 % of the administered dose | total radioactivity excreted in urine [1]: 57 % of the administered dose | proportion of SBM responders ([2]; 0.1 mg): 52.5% | proportion of SBM responders ([2]; 0.2 mg): 71.2% | proportion of SBM responders ([2]; 0.4 mg): 66.7% | proportion of responders ([3]; Study 1314 V9231 (Phase 3)): 47.6% | proportion of responders ([3]; Study 1315 V9232 (Phase 3)): 52.5% | Treatment-emergent adverse events ([4]; 0.1 mg): 66.1% | Treatment-emergent adverse events ([4]; 0.2 mg): 67.2% | Treatment-emergent adverse events ([4]; 0.4 mg): 78.6%
